The source of these data is US4576956A, “Iodo propargylaminoisoxazoles as fungicides” (Shionogi & Co., Ltd., priority 1982, dated 1986).

≈ marks a conversion by molar mass, not a printed value.

One assay relates to Botrytis cinerea. Description: Test B-1 Control Test of Botrytis Rot (Gray Mold) of Cucumber. In kind it is in vivo. Particulars: 500 ppm, 3 days. The protocol: Test B-1 Control Test of Botrytis Rot (Gray Mold) of Cucumber Seedlings of Cucumber (Cultivar: Matsukaze) were planted and grown in soil in vinyl-chloride cups of 9 cm in diameter in a greenhouse. […] The treated cucumbers were kept for 3 days in a greenhouse (20° C.) and then disease degrees were counted. Standard of Evaluation […] (2) A slight soaked lesion on the reverse of the test leaf . . . × 5 (3) A slight fade of the leaf . . . × 10 (4) The inoculated part was faded and the fading expanded erosively . . . × 20 [formula]

Assay [1] has as its system Colletotrichum lagenarium. Put plainly: Test B-4 Control Test to Anthracnose of Cucumber. Type of assay: in vivo. The settings on record: 500 ppm, 3 + 3 days. As to the method:
Test B-4 Control Test to Anthracnose of Cucumber Each cucumber seedling was sprayed with 2.5 ml of a test solution in the same manner as in Test B-1. After the spraying, the seedlings were kept at 25°-26° C. for a day and were inoculated with five filter-paper disks of 6 mm in diameter saturated with a conidium suspension of Colletotrichum lagenarium at a concentration of 1×10^6 conidia/ml. The treated seedlings were kept in a greenhouse (25° C.) for 3 days and further kept at below 25° C. for 3 days. Standard of Evaluation The same as noted in Test B-3.

In a further assay the test system is Mycoplasma hyopneumonia. Put plainly: growth inhibition of a swine enzootic pneumonia-causative bacteria. Particulars: one range for the listed compounds, read-out: concentration inhibiting the growth. Type of assay: cell-based.
The subject of assay [2] is Pseudoperonospora cubensis. Put plainly: Test B-3 Control Test to Downy Mildew of Cucumber. The settings on record: 500 ppm, 7 days. In kind it is in vivo. The protocol: Test B-3 Control Test to Downy Mildew of Cucumber
Each cucumber seedling was sprayed with 2.5 ml of a test solution in the same manner as in Test B-1. After the spraying, the seedlings were kept at 25°-26° C. for a day and a zoosporangium suspension or Pseudoperonospora cubensis was inoculated at a rate of five spots per leaf on a primary leaf. The treated seedlings were kept in a greenhouse for 7 days and then observed.
(2) Slight disease at the inoculation spot . . . X5
(3) A disease spot in the same size as the inoculation spot (without spreading) . . . x10
(4) A disease spot larger than the inoculation spot . . . x20
Disease degree and percent disease control were calculated in the same manner as in Test B-1.

For assay [3], the system named is Trichophyton asteroides. Description: Test A-1 Anti-fungal Activity (MIC), microwell dilution. Particulars: T. asteroides, in vitro, 1×10^5 cells/ml. In kind it is cell-based. The protocol:
(§1) Test A-1 Anti-fungal Activity (MIC)
The following results (Table 1) were obtained in an anti-fungal activity test in vitro against Aspergillus fumigatus, Candida albicans M-9 and Trichophyton asteroides. The concentration of the test cells was 1×10^5 cells/ml and the activity was measured by a microwell dilution method. The structure of the test compounds is referred to in the Examples.

A further assay has as its system Sclerotinia sclerotiorum. Put plainly: Test B-2 Control Test to Sclerotinia Rot of Cucumber. In kind it is in vivo. Particulars: 48 h, 2 days, read-out: Percent Disease Control. The protocol:
Test B-2 Control Test to Sclerotinia Rot of Cucumber
Cucumber seedlings were sprayed with 2.5 ml of a test solution in the same manner as in Test B-1. Afterthe spraying, the seedlings were kept at 25°-26° C. for a day and three disks of 4 mm in diameter containing mycelia of Sclerotinia sclerotiorum were put on a primary leaf and then 10 μl of PD broth were dropped on the disks. The treated seedlings were kept ina greenhouse (20° C.) for 2 days and then the diameters of the disease spots were measured by a pair of slide callipers. [formula]

A further assay deals with Mycoplasma gallisepticum. Put plainly: minimum inhibition concentration. Type of assay: cell-based. The settings on record: Mycoplasmoides gallisepticum, one range for the listed compounds.
Another assay has as its system Candida albicans M-9. Description: Test A-1 Anti-fungal Activity (MIC), microwell dilution. Type of assay: cell-based. The settings on record: M9, C. albicans M-9, in vitro, 1×10^5 cells/ml. The protocol:
as §1
(§2) The concentration of the test cells was 1×10^5 cells/ml and the activity was measured by a microwell dilution method. The structure of the test compounds is referred to in the Examples.

A further assay relates to Aspergillus fumigatus. The assay is described as above. Type of assay: cell-based. Particulars: in vitro, 1×10^5 cells/ml. As to the method:
as §1, §2

The next assay deals with Candida albicans. Description: Test A-2 Anti-fungal Activity (MCC). Particulars: 48 h, read-out: MCC (Minimal Cidal Concentration).
The subject of assay [4] is Trichophyton asteroides. Put plainly: Test A-2 Anti-fungal Activity (MCC). Particulars: 168 h, read-out: MCC (Minimal Cidal Concentration).
Description: Some MCC (Minimal Cidal Concentration) values (Table 1) were obtained against Candida albicans and Trichophyton asteroides by the following method. After the MIC value was obtained by the microwell method, a loopful amount was picked up from the medium in which no growth of the fungus was observed, inoculated into a Subrouraud's glucose agar medium and incubated at 28° C. for 2 days in the case of C. albicans and for 7 days in the case of T. asteroides.
The subject of another assay is Fusarium oxysporum. Put plainly: Test B-6 Control Test to Damping-off of Cucumber. Particulars: F*, 500 ppm, soil drench, 2 weeks. Type of assay: in vivo. As to the method:
(§3) Test B-6 Control Test to Damping-off of Cucumber
(§4) Twenty cucumber seeds were sown into sterilized soil (150 ml) in a pot of 9 cm in diameter. The fungi, Phythium aphanidermatum, Fusarium oxysporum and Rhizoctonia solani were cultured on a wheat bran medium for 5 days and an additional 2 days thereafter were mixed with sterilized soil. The surface of the sown spots was covered with the above culture medium. A test solution (30 ml) at a prescribed concentration was poured into each pot. The pots were kept in a greenhouse (28° C.) for 1 week in the case of Pythium and Rhizoctonia and for 2 weeks in the case of Fusarium.
(§5) The disease degree was observed and percent disease degree was calculated by the following formula: […]
(§6) (1) No germination . . . x 4
(§7) (2) Germed but withered . . . x 3
(§8) (3) Disordered in 1/3 or more . . . x 2
(§9) (4) Disordered in less than 1/3 . . . x 1
(§10) (5) Not damaged . . . x 0 [formula]
(§11) The percent disease control was calculated in the same manner as in Test B-1.

The subject of another assay is Pythium aphanidermatum. Description: Test B-6 Control Test to Damping-off of Cucumber. In kind it is in vivo. Particulars: P*, 500 ppm, soil drench, 1 week. As to the method: as §3, §4, §5, §6, §7, §8, §9, §10, §11
A further assay deals with Rhizoctonia solani. Description: Test B-6 Control Test to Damping-off of Cucumber. In kind it is in vivo. Particulars: R*, 500 ppm, soil drench, 1 week. The protocol:
as §3, §4, §5, §6, §7, §8, §9, §10, §11

A further assay concerns Sphaerotheca fuliginea. Description: Test B-5 Control Test to Powdery Mildew of Cucumber. Type of assay: in vivo. Particulars: 500 ppm, 2 weeks. The protocol:
Test B-5 Control Test to Powdery Mildew of Cucumber
Each cucumber seedling was sprayed with 2.5 ml of a test solution. The seedlings were kept at 25°-26° C. for 1 day after the spraying and then sprayed with a conidium (1×10^5 conidia/ml) of Sphaerotheca fuliginea in a 100 ppm spreader solution (containing 20% polyoxyethylene glycol alkyl phenol ether and 12% lignin sulfonate) at a rate of 25 ml/20 cups.
The seedlings were kept in a greenhouse (25° C.) for 2 weeks and then observed.
Standard of Evaluation [formula]
as §11

The next assay concerns Pyricularia oryzae. In kind it is in vivo. Particulars: 500 ppm; rice plant blast, 24 hours + 7 days.

For `Cc1onc(NCC#CI)c1Cl` [compound 34, 3-(3-iodo-2-propynyl)-amino-4-chloro-5-methylisoxazole], the “Percent Disease Control” value (in the assay on Botrytis cinerea; in assay [1]; in [2]) was 100% each time. The MIC in the assay on Mycoplasma hyopneumonia was in the range of 3.13 to 12.5 µg/mL (≈ 10.6 to 42.2 µM).

Consider `CCc1cc(N(C)CC#CI)on1` [Comp. 5], for which the “Percent Disease Control” value is on record as 100% with Botrytis cinerea and 95.0% in assay [2]. In addition, the MIC in the assay on Trichophyton asteroides [3] is 1.6 µg/mL (≈ 5.52 µM); in the assay with Mycoplasma gallisepticum, 6.25 to 12.5 µg/mL (≈ 21.5 to 43.1 µM); with Candida albicans M-9 it was 0.8 µg/mL (≈ 2.76 µM); in the assay on Aspergillus fumigatus, 1.6 µg/mL (≈ 5.52 µM). For the same compound, the pest or weed control at 500 ppm in the assay on Sclerotinia sclerotiorum turned out to be 100%.

Turning to `Cc1onc(N(C)CC#CI)c1Cl` [compound 33, 3-(N-methyl-N-3-iodo-2-propynyl)amino-4-chloro-5-methylisoxazole], the MIC with Trichophyton asteroides [3] came out at 0.8 µg/mL (≈ 2.58 µM); against Candida albicans M-9, 1.6 µg/mL (≈ 5.15 µM); with Aspergillus fumigatus it was 3.1 µg/mL (≈ 9.98 µM). Also, the pest or weed control at 500 ppm in the assay with Sclerotinia sclerotiorum came to 100%. Further, in [2], the “Percent Disease Control” value was 100%.

On to `CN(CC#CI)c1cc(-c2cccs2)no1` [Comp. 11], for which, in the assay with Botrytis cinerea, the “Percent Disease Control” value worked out at 100%. Further, the MIC turned out to be 1.6 µg/mL (≈ 4.65 µM) in the assay on Trichophyton asteroides [3], 0.8 µg/mL (≈ 2.32 µM) against Candida albicans M-9 and 3.1 µg/mL (≈ 9.01 µM) in the assay on Aspergillus fumigatus. Further, the MFC with Candida albicans worked out at 12.5 µg/mL (≈ 36.3 µM); in the assay on Trichophyton asteroides [4], 1.6 µg/mL (≈ 4.65 µM).

As to `Cc1noc(N(C)CC#CI)c1Cl` [Comp. 24], the “Percent Disease Control” value with Botrytis cinerea came out at 100%; in the assay with Fusarium oxysporum, 93%; with Pythium aphanidermatum, 100%; with Rhizoctonia solani, 100%; in the assay on Sphaerotheca fuliginea, 100%. In addition, the MIC in the assay with Trichophyton asteroides [3] worked out at 0.4 µg/mL (≈ 1.29 µM); in the assay on Candida albicans M-9, 0.2 µg/mL (≈ 0.644 µM); in the assay on Aspergillus fumigatus, 0.8 µg/mL (≈ 2.58 µM). Also, the pest or weed control at 500 ppm with Sclerotinia sclerotiorum turned out to be 100%. The figures for the MFC with Candida albicans and in the assay with Trichophyton asteroides [4] were 12.5 µg/mL (≈ 40.3 µM) and 3.1 µg/mL (≈ 9.98 µM), respectively.

Take `Cc1noc(C)c1NCC#CI` [compound 38, 3,5-dimethyl-4-(3-iodo-2-propynylamino)isoxazole]: the MIC came out at 0.8 µg/mL (≈ 2.9 µM) against Trichophyton asteroides [3], 0.8 µg/mL (≈ 2.9 µM) against Candida albicans M-9 and 3.1 µg/mL (≈ 11.2 µM) against Aspergillus fumigatus.

Take `CN(CC#CI)c1onc2c1CCCC2` [Comp. 15]: the “Percent Disease Control” value in the assay on Botrytis cinerea was determined as 100%. Further, the MIC in the assay with Mycoplasma hyopneumonia lay within 3.13 to 12.5 µg/mL (≈ 9.9 to 39.5 µM).

With `CN(CC#CI)c1cc(-c2ccccc2)no1` [Comp. 13], the MIC was 3.1 µg/mL (≈ 9.17 µM) in the assay with Trichophyton asteroides [3], 3.13 to 12.5 µg/mL (≈ 9.26 to 37 µM) in the assay on Mycoplasma hyopneumonia, 3.1 µg/mL (≈ 9.17 µM) in the assay on Candida albicans M-9 and 3.1 µg/mL (≈ 9.17 µM) against Aspergillus fumigatus. Moreover, in the assay on Pyricularia oryzae, the “Percent Disease Control” value came out at 99%.

Consider `Cc1cc(N(C)CC#CI)no1` [compound 32, 3-(N-methyl-N-3-iodo-2-propynyl)amino-5-methylisoxazole], for which the “Percent Disease Control” value in the assay on Botrytis cinerea came to 100%; in the assay on Pyricularia oryzae, 98%; in the assay on Fusarium oxysporum, 50%; in the assay on Pythium aphanidermatum, 100%; in the assay with Rhizoctonia solani, 100%; with Sphaerotheca fuliginea it was 100%. Moreover, the values for the MIC in the assay on Trichophyton asteroides [3], against Candida albicans M-9 and in the assay with Aspergillus fumigatus were 3.1 µg/mL (≈ 11.2 µM), 1.6 µg/mL (≈ 5.8 µM) and 1.6 µg/mL (≈ 5.8 µM), respectively. For the same compound, the pest or weed control at 500 ppm with Sclerotinia sclerotiorum came to 100%.

On to `Clc1c(-c2ccccc2)noc1NCC#CI` [Comp. 2, 3-phenyl-4-chloro-5-(3-iodo-2-propynyl)aminoisoxazole], for which the values for the MIC against Trichophyton asteroides [3], against Candida albicans M-9 and with Aspergillus fumigatus were 0.4 µg/mL (≈ 1.12 µM), 0.1 µg/mL (≈ 0.279 µM) and 6.2 µg/mL (≈ 17.3 µM), respectively.

For the compound `CN(CC#CI)c1onc(-c2ccccc2)c1Cl` [Comp. 27], in the assay with Pyricularia oryzae, the “Percent Disease Control” value was 100%.
